Here are results for 3 compounds from patent publication US12558324B2, “Application of R-ketamine and salt thereof as pharmaceuticals” (National University Corporation Chiba University, priority 2013, dated 2026).

Data set [1] deals with treatment-resistant obsessive-compulsive disorder and treatment-resistant posttraumatic stress disorder. The following applies: treatment-resistant patients; Non Patent Literatures 6 to 8; cited from earlier work.
Data set [2] relates to treatment-resistant patients with MDD. The following applies: cited from earlier work; for effective oral dose in patients with depression: Non Patent Literatures 15 and 16.
For data set [3], the system named is Control C57/B6 mice. The data set is described as follows: Conditioned place preference test in control mice (dependence). The note with it: injected on day 4, 6, 8, evaluation on day 11, vs saline. As for the experimental part:
15-minute habituation was performed for 3 days. Then, 30-minute conditioning was performed on day 4 to day 10, and a behavioral evaluation test was performed on day 11. Saline was injected on day 5, day 7, and day 9. […] In each of the groups, the injection was performed three times, i.e., on day 4, day 6, and day 8. Saline means a group injected with saline. In the group, the injection was performed three times, i.e., on day 5, day 7, and day 9.
The place preference test was performed using a conditioned place preference test apparatus (BrainSienceIdea Co., Ltd., Osaka, Japan).

Data set [4] concerns mice exposed neonatally to DEX. The data set is described as follows: Forced swimming test (FST) in DEX-treated mice. The note with it: for immobility time in the FST: DEX-treated juvenile mice, 10 mg/kg i.p. single injection, vs saline.
Protocol: (§1) On the final day of this period, the females were placed in isolation and checked daily around the expected delivery day. The day of birth was defined as day 0. The mice were injected intraperitoneally with DEX (Wako Pure Chemical Industries, Ltd., Tokyo, Japan) dissolved in saline on day 1, day 2, and day 3 at doses of 0.5 mg/kg body weight, 0.3 mg/kg body weight, and 0.1 mg/kg body weight, respectively. In addition, normal controls were injected with equal volumes (10 ml/kg) of saline.
(§2) The TST was performed as described below. […] The FST was performed as described below. […] The cages were cleaned between testing session.
For data set [5] the following is noted: Non Patent Literature 12; cited from earlier work.
Data set [6] concerns social defeat stress mice. The data set is described as follows: 1% sucrose preference test (SPT) in social defeat stress mice. The following applies: for sucrose consumption preference in the SPT: 10 mg/kg i.p. single injection, vs saline.
Protocol: as §2
For data set [7], the system named is mice exposed neonatally to DEX. Briefly: Tail suspension test (TST) in DEX-treated mice. The following applies: for immobility time in the TST: DEX-treated juvenile mice, 10 mg/kg i.p. single injection, vs saline.
Protocol: as §1, §2
In data set [8] the test system is Control C57/B6 mice. Briefly: Prepulse inhibition test in control mice (side effect). The note with it: 5, 10, or 20 mg/kg, prepulses 69, 73, 77, 81 dB before 110-dB pulse, vs saline.
Protocol: PP69, PP73, PP77, and PP81 mean that stimuli at 69, 73, 77, and 81 dB for more than 20 milliseconds were presented 100 milliseconds before a 110-dB pulse, respectively. Data analysis was performed by Wilks Lambda, which is multivariate analysis of variance.
The prepulse inhibition test was performed using a startle response system (SR-LAB, SanDiego Instruments, San Diego, CA, United States).
A further data set concerns healthy volunteers. The following applies: Non Patent Literature 13, cited from earlier work; for cerebral metabolic rates of glucose (CMRglu), PET: intravenous infusion of 15 mg for 5 min, then 0.014 to 0.02 mg/kg/min for 53 min (S), equimolar doses (R).
For data set [9], the system named is social defeat stress mice. Briefly: Tail suspension test (TST) in social defeat stress mice. The following applies: for immobility time in the TST: 10 mg/kg i.p. single injection, vs saline; for antidepressant effects compared to S(+)-ketamine, TST: 10 mg/kg i.p.
Protocol: as §2
Data set [10] relates to Control C57/B6 mice. The data set is described as follows: Locomotion-enhancing effect in control mice (side effect). The data set is classed as in vivo. The following applies: for locomotion (count/10 min) after injection: vs saline. As for the experimental part: An effect of ketamine on the locomotion of mice was tested using SCANET MV-40 ([…] Co., Ltd., Toyama, Japan). Specifically, the locomotion was measured for a total of 180 minutes, i.e., 60 minutes before injection to 120 minutes after injection, and calculated as a locomotion per 10 minutes.

Data set [11] deals with social defeat stress mice. The data set is described as follows: Forced swimming test (FST) in social defeat stress mice. The following applies: for immobility time in the FST: 10 mg/kg i.p. single injection, vs saline; for antidepressant effects compared to S(+)-ketamine, FST: 10 mg/kg i.p.
Protocol: as §2
The conditions of data set [12]: Non Patent Literature 12; cited from earlier work. This is another data set of the same source.
The conditions of data set [13]: known property of both isomers; cited from earlier work.

Consider `CNC1(c2ccccc2Cl)CCCCC1=O.Cl` (racemic) [RS(+/−)-ketamine, ketamine hydrochloride], for which the “effect in obsessive-compulsive disorder and PTSD” value in [1] is listed as “effective”. Also, the “effect on suicide ideation” value in data set [2] (Non Patent Literature 9) is “effect of inhibiting suicide ideation”. Also, the “duration of clinical antidepressant effects (other reports)” value in data set [2] (effects may last, Non Patent Literatures 3, 4, and 11) is no less than 2 weeks. Further, the “antidepressant effect of intranasal administration” value in [2] (intranasal, treatment-resistant patients with MDD, Patent Literature 1 and Non Patent Literature 17) is listed as “showed antidepressant effect”. Also, the “effective oral dose in patients with depression” value in [2] is given as 0.5 mg/kg. Moreover, the “duration of clinical antidepressant effects” value in [2] (starting from several hours after single administration) is reported as 1 to 2 days. Further, in data set [2] (treatment-resistant patients with MDD and depressive symptoms of treatment-resistant bipolar disorder, Non Patent Literatures 3 to 5), the “antidepressant effects in patients” value is “rapid and robust antidepressant effects”. The “conditioned place preference test score (CPP score)” value in the data set on Control C57/B6 mice [3] (10 mg/kg) is reported as “significantly increased the CPP score”.
`CN[C@]1(c2ccccc2Cl)CCCCC1=O.Cl` [S(+)-ketamine, S(+)-ketamine hydrochloride]: the “immobility time in the FST” value in data set [4] (29 hours after injection) is given as “markedly reduced the immobility time”; in data set [4] (7 days after injection), “did not reduce the immobility time”; in data set [11] (2 days after injection), “markedly reduced the immobility time”; in [11] (7 days after injection), “significantly reduced the immobility time”. The “psychotomimetic side effects compared to R-isomer” value in [5] was “greater psychotomimetic side effects than R-isomer”. The “sucrose consumption preference in the SPT” value is reported as “the sucrose consumption preference significantly increased” in data set [6] (1 day after injection) and “significantly restored the sucrose consumption preference” in data set [6] (6 days after injection). In addition, the “immobility time in the TST” value in data set [7] (27 hours after injection) is listed as “markedly reduced the immobility time”; in data set [7] (7 days after injection) it was “did not reduce the immobility time”; in [9] (2 days after injection) it was “markedly reduced the immobility time”; in [9] (7 days after injection) it was “significantly reduced the immobility time”. The prepulse inhibition result in the data set with Control C57/B6 mice [8] is given as “disrupted prepulse inhibition in a dose-dependent manner”. Moreover, the “cerebral metabolic rates of glucose (CMRglu), PET” value with healthy volunteers is “increased cerebral metabolic rates of glucose”. For the same compound, in the data set on Control C57/B6 mice [10] (10 mg/kg or 20 mg/kg), the “time after injection at which enhanced locomotion returned to a normal value” turned out to be 30 min. Also, the “locomotion (count/10 min) after injection” value in the data set with Control C57/B6 mice [10] (10 mg/kg or 20 mg/kg, 10 minutes and 20 minutes after the injection) was “significant increase in locomotion”. Besides, the “antidepressant effects compared to RS(+/−)-ketamine (0.5 mg/kg, i.v.)” value in data set [2] (0.25 mg/kg, i.v., treatment-resistant patients with MDD, case report, Non Patent Literature 14) is “weaker than those of RS(+/−)-ketamine”. Besides, in data set [2], the “effective oral dose in patients with depression” value is reported as 1.25 mg/kg. Besides, in the data set on Control C57/B6 mice [3] (5, 10, or 20 mg/kg), the “conditioned place preference test score (CPP score)” value is on record as “increased the CPP score in a dose-dependent manner”. Further, the “anesthetic effect as compared to R-isomer” value in data set [12] was 3- to 4 fold.
As for `CN[C@@]1(c2ccccc2Cl)CCCCC1=O.Cl` [R(−)-ketamine, R(−)-ketamine hydrochloride], the “immobility time in the FST” value in [4] (29 hours after injection) is listed as “markedly reduced the immobility time”; in data set [4] (7 days after injection) it was “significantly reduced the immobility time”; in [11] (2 days after injection) it was “markedly reduced the immobility time”; in data set [11] (7 days after injection), “significantly reduced the immobility time”. In addition, the “antidepressant effects compared to S(+)-ketamine, FST” value is “slightly high antidepressant effects as compared to those of S(+)-ketamine” in data set [4] (DEX-treated mice, 10 mg/kg i.p., 29 hours after injection, no significant difference); “significant high antidepressant effects as compared to those of S(+)-ketamine” in [11] (2 days after injection); “significantly high antidepressant effects as compared to S(+)-ketamine” in [11] (7 days after injection). Besides, the “difference between R(−)-ketamine and S(+)-ketamine, FST immobility time” value in data set [4] (DEX-treated mice, 10 mg/kg i.p., 7 days after injection) was “statistically significant”. Also, the entries for the “sucrose consumption preference in the SPT” value in data set [6] (1 day after injection) and in [6] (6 days after injection) were “the sucrose consumption preference significantly increased” and “significantly restored the sucrose consumption preference”, respectively. The “antidepressant effects compared to S(+)-ketamine, SPT” value in data set [6] (10 mg/kg i.p., 1 day after injection) was “more potent than those of S(+)-ketamine”. Moreover, the “difference between R(−)-ketamine and S(+)-ketamine, SPT” value in [6] (10 mg/kg i.p., 6 days after injection) is listed as “statistically significant”. Besides, the “immobility time in the TST” value is listed as “markedly reduced the immobility time” in data set [7] (27 hours after injection), “significantly reduced the immobility time” in data set [7] (7 days after injection), “markedly reduced the immobility time” in data set [9] (2 days after injection) and “significantly reduced the immobility time” in data set [9] (7 days after injection). Further, the “antidepressant effects compared to S(+)-ketamine, TST” value in data set [7] (DEX-treated mice, 10 mg/kg i.p., 27 hours after injection, no significant difference) was “slightly high antidepressant effects as compared to those of S(+)-ketamine”; in data set [9] (2 days after injection) it was “significant high antidepressant effects as compared to those of S(+)-ketamine”; in [9] (7 days after injection), “significantly high antidepressant effects as compared to S(+)-ketamine”. For the same compound, in the data set on Control C57/B6 mice [8], the prepulse inhibition entry is reported as “did not disrupt prepulse inhibition”. In addition, the “psychotic symptoms in PET study” value in the data set on healthy volunteers (doses equimolar to psychotomimetic doses of S(+)-ketamine) is recorded as “did not produce psychotic symptoms”. Further, the “cerebral metabolic rates of glucose (CMRglu), PET” value with healthy volunteers is “tended to decrease CMRglu across brain regions”. The in vivo clearance result in data set [13] is on record as “rapid in vivo clearance”. Besides, the “locomotion (count/10 min) after injection” value in the data set with Control C57/B6 mice [10] (5, 10, or 20 mg/kg, up to 120 minutes after injection) is “did not affect the locomotion”. Further, the “conditioned place preference test score (CPP score)” value in the data set with Control C57/B6 mice [3] (5, 10, or 20 mg/kg) is recorded as “did not increase the CPP score”.
